Experimental data as given in patent publication US7947280B2 (priority 2003, dated 2011).
Values joined by “and” are separate entries in the source; they are usually repeats but may differ in a detail not shown here. Equal values may be shown once. “Also recorded” adds a separate entry of the source.

Legend:
[1] = test system: superoxide production in aortic tissue of apoE knockout mice; test: Lucigenin-enhanced chemiluminescence of aortic superoxide; assay type: in vivo, mouse; conditions: addition of apelin to AngII
Method: Lucigenin-enhanced chemiluminescence. Total aortic superoxide was measured by lucigenin-enhanced chemiluminescence as described previously. Aortas were harvested flushed with Krebs-HEPES buffer, opened longitudinally and divided into halves. Vessels were gassed with 95% oxygen/5% carbon dioxide in warmed Krebs-HEPES buffer for 30 minutes before measurements of chemiluminescence in a luminometer (manufacturer, location) using 20 μmol/L lucigenin. One half of each vessel was incubated in L-NAME (1 mmol/L). After measuring baseline readings for 4 minutes, samples were equilibrated and dark adapted for 5 mins, and chemiluminescence was recorded for 10 minutes. Recordings were performed blinded to the samples identity. Results were expressed as counts per second per milligram of tissue dry weight.

[2] = test system: Erk1/2 phosphorylation in HEK293 cells expressing AT1R; conditions: AngII, 5 and 15 minute timepoints
Method: Cell Culture, Transfections, and Stimulation Assays HEK293 cells were cultured in Dulbecco's modified Eagle's medium with 10% fetal bovine serum, 10 units/ml penicillin, and 100 μg/ml streptomycin. Transient transfection of the HEK293 cells was carried out using FuGene reagent per manufacturer's protocols in 6 well plates (Roche). […] For ERK phosphorylation, transfected HEK293 cells were serum starved for 3 hours and incubated with the agonist for designated times at 37 C. Cells were immediately lysed.

[3] = test system: eNOS protein; conditions: experimental groups incl. apelin treated animals
Method: Immunoblotting. Lung homogenate (n≧3 per group) were homogenized on ice for 20 seconds in lysis buffer (50 mmol/L Tris, pH 7.5, 150 mmol/L NaCl, 0.1% SDS, 0.5% deoxycholate, 1% Nonidet P-40) containing protease inhibitors (Complete; Boehringer Mannheim) and 1 mmol/L phenylmethylsulfonyl fluoride. Protein lysates (8 μg) were resolved using SDS-PAGE and transferred to polyvinylidene difluoride membranes. Membranes were incubated with a 1:2000 dilution of mouse anti-eNOS monoclonal antibody (Cell Signaling, Location), followed by a 1:2500 dilution of rabbit anti-mouse horseradish peroxidase-conjugated secondary antibody (Promega). Protein bands were visualized by chemiluminescence.

[4] = test system: C57B/16 mice; test: Magnetic resonance imaging after intraperitoneal apelin-12 injection; assay type: in vivo, mouse; conditions: post apelin-12 300 μg/kg intraperitoneal, one hour prior to scanning; n=9
Method: Magnetic resonance imaging. […] Platinum needle ECG leads were inserted subcutaneously. Respiration was monitored by means of a pneumatic pillow sensor positioned against the abdomen. Mouse body temperature was maintained during scanning at 37° C. by a flow of heated air thermostatically controlled by a rectal temperature probe. Magnetic resonance images were acquired on a 4.7T Oxford magnet controlled by a Varian Inova console (Varian, Palo Alto, Calif.) using a transmit-receive, quadrature, volume coil with an inner diameter of 3.5 cm. Image acquisition was gated to respiration and to the ECG R wave (SA Instruments, Stony Brook, N.Y.). Coronal and sagittal scout images led to the acquisition of multiple contiguous 1 mm thick, short axis slices orthogonal to the interventricular septum. […] Planimetry measurements of end diastolic and end systolic dimension were derived offline from short axis views of the left ventricle at the level of the papillary muscles using ImageJ software (National Institutes of Health, Bethesda, Md.). Ejection fraction was calculated as [[…]. Data Analysis. […] Exact p values are reported for all comparisons.

[5] = test system: rats; conditions: intravenous bolus injection in rats; Tatemoto et al., Lee et al.; cited from earlier work
[6] = test system: mice given angiotensin II and isoproterenol infusions; test: Neurohormonal cardiomyopathy model, echocardiography; assay type: in vivo, mouse; conditions: wild type mice
Method: Echocardiography. Two dimensional and M mode echocardiography was carried out using thea GE Vivid ultrasound platform with the small animal probe (13 MHz). […] After shaving of the anterior chest, mice were warmed using a heat lamp. Short axis views of the left ventricle were captured at the level of the papillary muscles in 2D and M modes. Analysis was carried out offline and fractional shortening calculated as [LVEDD−LVESD]/LVEDD where LVEDD is left ventricular end diastolic diameter (measured at the tip of the mitral valve leaflets) and LVESD is left ventricular end systolic diameter.
Neurohormonal cardiomyopathy model. […] All mice were age 12-14 weeks.

[7] = test system: isolated rat heart; conditions: Szokodi et al; cited from earlier work
[8] = test system: isolated human saphenous vein; conditions: Katugampola et al.; cited from earlier work
[9] = test system: AT1R and APJ heterodimerization; test: AT1R-APJ receptor heterodimerization by immunoprecipitation; assay type: cell-based; conditions: addition of apelin
Method: Cells were immediately lysed.
Immunoprecipitation and Western Blotting Immunoprecipitation was performed as previously described (REF). In brief, cells were lysed using 10× Cell Lysis Buffer (Cell Signaling Technologies CITY). Lysates were precleared with protein G and immunoprecipitation was performed with the respective antibodies at concentration of 1 mg/mL for 24 hrs at 4C. Protein G agarose was added and incubated for additional 2 hours. Western blotting on SDS-PAGE gels were performed as previously described, and the bands were visualized using the enhanced chemiluminescence system (Amersham Biosciences).

[10] = test system: C57B1/6 mice
Method: Pressure-volume hemodynamics. Pressure-volume hemodynamics were assessed using the Aria System (Millar Instruments, Houston, Tex.). Male C57B1/6 mice aged 8-12 weeks (n=10) were anesthetized with 1-2% isoflurane in oxygen. The internal jugular vein was cannulated with PE tubing and a 10% albumin solution infused at 5 μl/min following a bolus of 150 μl over 5 minutes. After tracheotomy, a 19G cannula was inserted into the trachea and the animal was ventilated at a tidal volume of 200 μl at 100 breaths per minute (Harvard Apparatus, Holliston, Mass.). Mice were warmed throughout the procedure and constantly monitored for depth of anesthesia. Following an incision just dorsal to the xyphoid cartilage, the diaphragm was visualized from below, and after diaphragmatic incision, the left ventricular apex was visualized. The pressure-volume catheter was then inserted along the long axis of the left ventricle, from where it was adjusted to obtain rectangular shaped pressure-volume loops. Appropriate position was verified post mortem (FIG. 1, Panel D). […] Signals from the catheter were digitized using the Powerlab system (ADInstruments, Colorado Springs, Colo.) and stored for offline analysis using the PVAN software (Pressure-volume ANalysis, Millar Instruments, Houston, Tex.).
Data Analysis. Data were analyzed using Student's t statistic (paired) or the repeated measures analysis of variance using the post hoc comparison of Fisher (NCSS 2002). Exact p values are reported for all comparisons.

[11] = post 100 nM Apelin-12 infused at 5 μl/min for 20 minutes

## apelin
[1]
  AngII stimulated increase in total chemiluminescence: abolished
[2]
  phosphorylation of Erk1/2: dramatically reduced
[3]
  eNOS protein levels in aortas: no difference
[4]
  Ejection fraction: 67.7±1.6%
  heart rate (inverse of R-R interval of electrocardiogram): 559±19 beats per minute
  left ventricular end diastolic area: 0.104±0.005 cm2
[5]
  mean arterial pressure: decrease
[6]; apelin infused concomitantly with angiotensin II and isoproterenol
  heart failure phenotype: completely abrogated; also recorded: abrogated completely; also recorded: ameliorates the heart failure phenotype completely
[6]; pyr-apelin-13 2 mg/kg/day with angiotensin II and isoproterenol, 7 day minipumps
  fractional shortening (post): 42.6±1.3%
[7]
  EC50, contractility of the isolated rat heart: low picomolar range
[8]
  effect on isolated human saphenous vein: potently contracts
[9]
  AngII induced receptor heterodimerization: did not affect
[10]; after apelin infusion
  Time constants of relaxation: not different
  slope and intercept of linear fit of end diastolic pressure-volume relationship: not different
[10]; following apelin infusion
  Arterial elastance: did not change significantly
  dP/dtmax: did not change
  end systolic pressure: reduced
[10]; [11]
  EDV mean: 26.2
  Emax (time varying elastance): 12.7±3.1 and 12.7
  HR mean: 353
  PRSW intercept mean: 11.3
[10]; post apelin infusion
  LV end diastolic volume: 26.2±5.9 RVU
  constant k1 of monoexponential fit LVEDP=k1*exp(k2*LVEDV): 0.111±0.002
  exponential k2 of monoexponential fit LVEDP=k1*exp(k2*LVEDV): 0.69±0.41
[10]; post apelin infusion, invasive study
  heart rate: 353±33 bpm
